The values that follow are results of earlier work, collected in US20240199566A1, “CATALYTIC SYNTHESIS OF DELTA-VALEROLACTONE (DVL) FROM FURFURAL-DERIVED 2-HYDROXYTETRAHYDROPYRAN (HTHP)” (Wisconsin Alumni Research Foundation, priority 2022, published 2024).

Structures are written as SMILES.

The conditions of the data set: stated as a property, no test described.

For `C1=COCCC1` [DHP, 3,4-dihydropyran], the solubility in water was less than 1 wt %.
